According to PubChem BioAssay AID1963846 (Molecular Pharmacology Branch, DTP, NCI, 2024):

Tested on: 454973-116-R2-J3-PDC complex spheroid viability
Experiment: Anticancer human tumor 454973-116-R2-J3-PDC patient-derived pancreatic carcinoma cell line growth inhibition [POLQ]
Conditions: for IC50: curve of first compound; for viability, T/C: stronger effect = lower value; active means viability on the fitted dose curve at most 10% of control; inactive means the rest
Procedure, shortened: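 PDC + HUVEC + MSC complex spheroids; POLQ inhibitors ± partner drugs; top conc. at/near clinical Cmax, else 10 microM (SN-38 1 microM), half-log dilutions; 37 degrees C, 5% CO2.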

[1] = second compound 0.0316 µM, first compound 0.0316 µM
[2] = second compound 0.0316 µM, first compound 0.1 µM
[3] = second compound 0.0316 µM, first compound 0.316 µM
[4] = second compound 0.0316 µM, first compound 1 µM
[5] = second compound 0.1 µM, first compound 0.0316 µM
[6] = second compound 0.1 µM, first compound 0.1 µM
[7] = second compound 0.1 µM, first compound 0.316 µM
[8] = second compound 0.1 µM, first compound 1 µM
[9] = second compound 0.316 µM, first compound 0.0316 µM
[10] = second compound 0.316 µM, first compound 0.1 µM
[11] = second compound 0.316 µM, first compound 0.316 µM
[12] = second compound 0.316 µM, first compound 1 µM
[13] = second compound 1 µM, first compound 0.0316 µM
[14] = second compound 1 µM, first compound 0.1 µM
[15] = second compound 1 µM, first compound 0.316 µM
[16] = second compound 1 µM, first compound 1 µM
[17] = second compound 3.16 µM, first compound 0.0316 µM
[18] = second compound 3.16 µM, first compound 0.1 µM
[19] = second compound 3.16 µM, first compound 0.316 µM
[20] = second compound 3.16 µM, first compound 1 µM
[21] = second compound 10 µM, first compound 0.0316 µM
[22] = second compound 10 µM, first compound 0.1 µM
[23] = second compound 10 µM, first compound 0.316 µM
[24] = second compound 10 µM, first compound 1 µM
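Further: spheroids exposed to drugs for seven days before measurement.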
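Wherever viability, T/C is given: percent viability relative to DMSO vehicle control wells taken as 100%.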

CNCc1ccc(-c2[nH]c3cc(F)cc4c3c2CCNC4=O)cc1 + COC1C(OC(N)=O)C(O)C(Oc2ccc3c(O)c(NC(=O)c4ccc(O)c(CC=C(C)C)c4)c(=O)oc3c2C)OC1(C)C
> 10000 nM: IC50 (second compound 0.0316 µM) | IC50 (second compound 0.1 µM) | IC50 (second compound 0.316 µM) | IC50 (second compound 1 µM) | IC50 (second compound 3.16 µM) | IC50 (second compound 10 µM)
inactive: viability, T/C [1] 99.4% | viability, T/C [2] 115% | viability, T/C [3] 98.6% | viability, T/C [4] 106% | viability, T/C (second compound 0.0316 µM, first compound 3.16 µM) 104% | viability, T/C (second compound 0.0316 µM, first compound 10 µM) 92% | viability, T/C [5] 98.2% | viability, T/C [6] 103% | viability, T/C [7] 103% | viability, T/C [8] 104% | viability, T/C (second compound 0.1 µM, first compound 3.16 µM) 106% | viability, T/C (second compound 0.1 µM, first compound 10 µM) 89.1% | viability, T/C [9] 102% | viability, T/C [10] 113% | viability, T/C [11] 100% | viability, T/C [12] 105% | viability, T/C (second compound 0.316 µM, first compound 3.16 µM) 95.8% | viability, T/C (second compound 0.316 µM, first compound 10 µM) 87.8% | viability, T/C [13] 106% | viability, T/C [14] 99% | viability, T/C [15] 101% | viability, T/C [16] 98.7% | viability, T/C (second compound 1 µM, first compound 3.16 µM) 97.8% | viability, T/C (second compound 1 µM, first compound 10 µM) 88% | viability, T/C [17] 112% | viability, T/C [18] 104% | viability, T/C [19] 101% | viability, T/C [20] 98.8% | viability, T/C (second compound 3.16 µM, first compound 3.16 µM) 99.3% | viability, T/C (second compound 3.16 µM, first compound 10 µM) 87.5% | viability, T/C [21] 103% | viability, T/C [22] 97.3% | viability, T/C [23] 92.8% | viability, T/C [24] 98.3% | viability, T/C (second compound 10 µM, first compound 3.16 µM) 92% | viability, T/C (second compound 10 µM, first compound 10 µM) 85.1%

COc1cccc(OCCCN)c1-c1cc(Nc2cnc(C#N)cn2)n[nH]1 + COC1C(OC(N)=O)C(O)C(Oc2ccc3c(O)c(NC(=O)c4ccc(O)c(CC=C(C)C)c4)c(=O)oc3c2C)OC1(C)C
15.1 nM: IC50 (second compound 10 µM)
15.8 nM: IC50 (second compound 3.16 µM)
16.5 nM: IC50 (second compound 0.1 µM)
15.5 nM: IC50 (second compound 1 µM)
16.9 nM: IC50 (second compound 0.0316 µM)
inactive: viability, T/C (second compound 0.0316 µM, first compound 0.00316 µM) 103% | viability, T/C (second compound 0.0316 µM, first compound 0.01 µM) 78% | viability, T/C [1] 16.5% | viability, T/C (second compound 0.1 µM, first compound 0.00316 µM) 103% | viability, T/C (second compound 0.1 µM, first compound 0.01 µM) 78.8% | viability, T/C [5] 12.9% | viability, T/C (second compound 0.316 µM, first compound 0.00316 µM) 95.6% | viability, T/C (second compound 0.316 µM, first compound 0.01 µM) 70.8% | viability, T/C [9] 13.3% | viability, T/C (second compound 1 µM, first compound 0.00316 µM) 97% | viability, T/C (second compound 1 µM, first compound 0.01 µM) 73.2% | viability, T/C [13] 12.2% | viability, T/C (second compound 3.16 µM, first compound 0.00316 µM) 107% | viability, T/C (second compound 3.16 µM, first compound 0.01 µM) 75.5% | viability, T/C [17] 11% | viability, T/C (second compound 10 µM, first compound 0.00316 µM) 104% | viability, T/C (second compound 10 µM, first compound 0.01 µM) 68% | viability, T/C [21] 17.8%
active: viability, T/C [2] 5.78% | viability, T/C [3] 6.6% | viability, T/C [4] 5.48% | viability, T/C [6] 5.6% | viability, T/C [7] 5.16% | viability, T/C [8] 6.37% | viability, T/C [10] 5.72% | viability, T/C [11] 3.83% | viability, T/C [12] 4.13% | viability, T/C [14] 6.82% | viability, T/C [15] 5.97% | viability, T/C [16] 5.82% | viability, T/C [18] 7.17% | viability, T/C [19] 6.78% | viability, T/C [20] 5.38% | viability, T/C [22] 6.01% | viability, T/C [23] 7.28% | viability, T/C [24] 7.27%
15.2 nM: IC50 (second compound 0.316 µM)
